# Measured values published in patent publication US8497075B2, “Methods of identifying a modulator that inhibits the binding between Epstein-Barr virus induced receptor 2 and cholesterol derived ligands” (Novartis AG, priority 2008, dated 2013).
# Tests used:
# Type in all cases: cell-based
# [1] = target: T1, LXRa (NR1H3) (Homo sapiens, UniProt Q13133); test: nuclear hormone receptor reporter gene assay; conditions: concentrations up to 10 μM
# T1 sequence (Q13133 1-447): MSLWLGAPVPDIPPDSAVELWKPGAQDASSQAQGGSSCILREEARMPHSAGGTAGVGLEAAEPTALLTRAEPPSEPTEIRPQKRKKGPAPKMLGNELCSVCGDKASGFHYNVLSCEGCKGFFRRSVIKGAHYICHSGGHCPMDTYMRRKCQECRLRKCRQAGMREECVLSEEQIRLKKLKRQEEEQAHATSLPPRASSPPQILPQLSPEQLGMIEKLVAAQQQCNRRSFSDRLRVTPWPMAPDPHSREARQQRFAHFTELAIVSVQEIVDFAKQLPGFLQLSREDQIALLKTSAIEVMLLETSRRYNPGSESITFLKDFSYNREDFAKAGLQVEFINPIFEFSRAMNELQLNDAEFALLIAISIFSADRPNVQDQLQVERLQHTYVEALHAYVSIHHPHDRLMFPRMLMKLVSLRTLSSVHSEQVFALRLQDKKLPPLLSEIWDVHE
# Excerpt: (§1) So far oxysterols have been noted to have various physiological activities namely regulate the expression of genes that participate in both sterol and fat metabolism, serve as substrates for the synthesis of bile acids, and are intermediates in the transfer of sterols from the periphery to the liver (Russell, D. W. (2000). Oxysterol biosynthetic enzymes. Biochim. Biophys. Acta 1529, 126-135). […] This included binding assays for 26 different GPCRs, functional assays of 9 different GPCRs, 40 kinase assays, as well as selected ion channels, proteases, transporter and enzyme assays.
# [2] = target: T2, ERa (NR3A1) (Homo sapiens, UniProt P03372); test: nuclear hormone receptor reporter gene assay; conditions: concentrations up to 10 μM
# T2 sequence (P03372 1-595): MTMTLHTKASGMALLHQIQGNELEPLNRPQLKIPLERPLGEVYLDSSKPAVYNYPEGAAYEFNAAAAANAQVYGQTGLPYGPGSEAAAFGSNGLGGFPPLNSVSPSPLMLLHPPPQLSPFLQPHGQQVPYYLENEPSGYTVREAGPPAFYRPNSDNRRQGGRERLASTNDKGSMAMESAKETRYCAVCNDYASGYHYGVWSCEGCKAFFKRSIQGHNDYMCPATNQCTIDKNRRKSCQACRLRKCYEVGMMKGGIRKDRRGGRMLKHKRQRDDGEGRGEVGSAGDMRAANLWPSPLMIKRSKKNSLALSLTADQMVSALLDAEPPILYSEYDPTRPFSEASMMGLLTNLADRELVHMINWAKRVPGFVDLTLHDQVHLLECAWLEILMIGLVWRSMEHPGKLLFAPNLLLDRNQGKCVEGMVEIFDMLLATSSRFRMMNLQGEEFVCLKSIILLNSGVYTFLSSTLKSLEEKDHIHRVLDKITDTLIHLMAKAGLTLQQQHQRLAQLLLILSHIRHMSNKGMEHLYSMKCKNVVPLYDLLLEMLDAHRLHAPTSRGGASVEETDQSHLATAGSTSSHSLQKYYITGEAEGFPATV
# Excerpt: as §1
# [3] = target: T3, hEBI2 (Homo sapiens, UniProt P32249); test: aequorin assay, hEBI2 stably transfected CHO-AeqGα16 cells; parameters: expressed in transfected cells; host or cells: CHO-K1 expressing apoaequorin (CHO-Aeq) with Gqi5; line E2
# T3 sequence (P32249 whole entry): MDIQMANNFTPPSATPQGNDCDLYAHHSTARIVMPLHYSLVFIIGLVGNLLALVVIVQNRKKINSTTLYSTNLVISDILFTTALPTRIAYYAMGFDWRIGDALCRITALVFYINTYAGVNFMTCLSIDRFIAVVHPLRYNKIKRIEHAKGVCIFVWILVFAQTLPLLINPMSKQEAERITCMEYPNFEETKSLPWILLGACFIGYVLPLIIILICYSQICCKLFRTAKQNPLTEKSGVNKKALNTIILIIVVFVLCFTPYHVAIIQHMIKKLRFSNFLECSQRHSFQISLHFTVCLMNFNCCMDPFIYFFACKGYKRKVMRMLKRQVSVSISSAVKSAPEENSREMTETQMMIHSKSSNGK
# Protocol: Stable cell line expressing human EBI2 (in pcDNA3.1 vector) and Gα16 was generated with parental CHO cells that stably express apo-aequorin (Euroscreen CHO-A12 cell line). The cells were seeded into 384 well black clear bottom plates (Greiner Bio-one) at 10,000 cells/25 μl well in F12 medium containing 3% FBS and incubated overnight. Coelenterazine (20 μM final) was added into the cell plates at 25 μl/well. The cell plates were returned to incubator for 3 hrs. The compounds were diluted 1:20 into an intermediate plate with Tyrode buffer (130 mM NaCl, 2 mM CaCl2, 5 mM NaHCO3, 5 mM KCl, 1 mM MgCl2, 20 mM HEPES, pH 7.4). 12.5 μl/well of pre-diluted compounds were transfered into the cell assay plate and read on LumiLux™ (Perkin Elmer) for flash luminescence.
# An algorithm similar to area under curve (AUC) was created in house to analyze the aequorin kinetic data, which was named Slope Threshold (Slope 100). The algorithm defines the beginning and the end of the luminescence intensity peak by comparing the difference in intensity of each time point with an earlier time point, and determining if the difference exceeds a defined threshold, which was usually set at 100. If it does, then the intensity of the later time point is added into the Slope Threshold's sum.
# [4] = target: T3, hEBI2; test: cAMP assay, hEBI2 CHO-AeqGα16 cells; parameters: expressed in transfected cells; host or cells: CHO-K1 expressing apoaequorin (CHO-Aeq) with Gqi5; line E2
# Protocol: The same stable EBI2 cell line used in the aequorin assay was used in cAMP assay. 10,000 cells (25 μA) were seeded per well into white solid 384-well plate and incubated in 37° C. incubator overnight. 500 nl of compound was then transferred into each assay well, followed by 5 μl of forskolin addition for a final concentration of 30 μM. Cells were returned to a 37° C. incubator for 30 min. Finally 15 μl each of HiRange D2-cAMP and anti-cAMP cryptate were dispensed per well. After >1 hr room temperature incubation, data acquisition was done in the time-resolved FRET (fluorescence-resonance energy transfer) mode on Envision™ or ViewLux™ (Perkin Elmer). The ratio between the acceptor fluorescence signal (A665 nm) and donor fluorescence signal (A620 nm)×104, representing the FRET between the conjugated cAMP and the anti-cAMP antibody, was calculated and plotted on Y-axis. The higher the signal, the lower endogenous cAMP concentration is in the sample.
Structure (SMILES),activation of LXRa [1],activation of ERa [2],EC50 [3],EC50 [4],"EC50 ([3]; CHO-AeqGα16, read-out: EC50, activation of EBI2 (aequorin))","EC50 ([4]; forskolin 30 μM, read-out: EC50, cAMP assay)"
"C[C@H](CCCC(C)(C)O)[C@H]1CC[C@H]2[C@@H]3[C@H](O)C=C4C[C@@H](O)CC[C@]4(C)[C@H]3CC[C@]12C [7a,25DHC, cholest-5-ene-3b,7a,25-triol]",did not activate,did not activate,18.4 nM,10.3 nM,,
"CC(CO)CCC[C@@H](C)[C@H]1CC[C@H]2[C@@H]3[C@H](O)C=C4C[C@@H](O)CC[C@]4(C)[C@H]3CC[C@]12C (some centres unmarked) [7a,27DHC, cholest-5-ene-3b,7a,27-triol]",did not activate,did not activate,,,,
"C[C@H](CCCC(C)(C)O)[C@H]1CC[C@H]2[C@@H]3[C@@H](O)C=C4C[C@@H](O)CC[C@]4(C)[C@H]3CC[C@]12C [7b,25DHC, cholest-5-ene-3b,7b,25-triol]",,,,,398 nM,10600 nM
